# PMC6270026, “Antibacterial and Herbicidal Activity of Ring-Substituted 2-Hydroxynaphthalene-1-carboxanilides” (Molecules, 2013)
# Columns and labels:
# Type in all cases: cell-based
# [1] = test system: Mycobacterium marinum CAMP 5644; assay: In vitro antimycobacterial evaluation (broth dilution MIC); settings: Mycobacterium marinum, CAMP5644, 504 h, M. marinum CAMP 5644, 21 days, 28 °C
# M. kansasii DSM 44162 = assay: as above; settings: Mycobacterium kansasii, DSM44162, 168 h; M. kansasii DSM 44162, 7 days, 37 °C
# [2] = test system: Mycobacterium avium subsp. paratuberculosis (CIT03); assay: In vitro antimycobacterial evaluation (alamarBlue MIC); settings: 264 h, M. avium paratuberculosis CIT03, 11 days, 37 °C
# Experimental: A well characterised clinical isolate of Mycobacterium avium subsp. paratuberculosis (CIT03) was grown in Middlebrook broth (MB), supplemented with Oleic-Albumin-Dextrose-Catalase supplement (OADC, Becton, Dickinson & Comp., Franklin Lakes, NJ, USA) and mycobactin J (2 µg/mL). Identification of this isolate was performed using biochemical and molecular protocols. At log phase growth, a culture sample (10 mL) was centrifuged at 15,000 rpm/20 min using a bench top centrifuge (Model CR 4-12, Jouan Inc., Winchester, VA, USA). Following removal of the supernatant, the pellet was washed in fresh Middlebrook 7H9GC broth and re-suspended in fresh supplemented MB (10 mL). The turbidity was adjusted to match McFarland standard No. 1 (3 × 10^8 cfu) with MB broth. A further 1:20 dilution of the culture was then performed in MB broth. The antimicrobial susceptibility of the mycobacterial species was investigated in a 96-well plate format. In these experiments, sterile deionised water (300 µL) was added to all outer-perimeter wells of the plates to minimize evaporation of the medium in the test wells during incubation. Each evaluated compound (100 µL) was incubated with each of the mycobacterial species (100 µL). Dilutions of each compound were prepared in duplicate. For all synthesized compounds, final concentrations ranged from 1,000 µg/mL to 8 µg/mL. All compounds were prepared in DMSO and subsequent dilutions were made in supplemented MB. The plates were sealed with parafilm and incubated at 37 °C, for 11 days in the case of M. avium paratuberculosis. Following incubation, a 10% addition of alamarBlue (AbD Serotec, Kidlington, UK) was mixed into each well and readings at 570 nm and 600 nm were taken, initially for background subtraction and subsequently after 24 h re-incubation. The background subtraction is necessary for strongly coloured compounds, where the colour may interfere with the interpretation of any colour change. For non-interfering compounds, a blue colour in the well was interpreted as an absence of growth and a pink colour was scored as growth. The minimum inhibitory concentrations (MICs) were initially defined as the lowest concentration which prevented a visual colour change from blue to pink.
# The MICs were defined as the lowest concentration of the compound at which no visible bacterial growth was observed. The MIC value is routinely and widely used in bacterial assays and is a standard detection limit according to the Clinical and Laboratory Standards Institute (CLSI). Isoniazid (Sigma-Aldrich) was used as reference antimycobacterial drug.
Structure (SMILES),MIC [1] [µM],MIC (M. kansasii DSM 44162) [µM],MIC [2] [µM]
"O=C(Nc1ccccc1Cl)c1c(O)ccc2ccccc12 [Compound 5a, N-(2-chlorophenyl)-2-hydroxynaphthalene-1-carboxamide]",107,107,202
"O=C(Nc1ccccc1C(F)(F)F)c1c(O)ccc2ccccc12 [Compound 7a, 2-Hydroxy-N-(2-trifluoromethylphenyl)naphthalene-1-carboxamide]",96.6,96.6,377
"O=C(Nc1cccc(C(F)(F)F)c1)c1c(O)ccc2ccccc12 [Compound 7b, 2-Hydroxy-N-(3-trifluoromethylphenyl)naphthalene-1-carboxamide]",> 748,93.5,731
